Target: T1, JNK1 (Homo sapiens, UniProt P45983)
T1 construct: purchased Carna Biosciences
Assay: JNK1 biochemical assays (one or more of: time resolved fluorescence, Z'-LYTE Cascade, radioactive)
Conditions: one or more of the JNK1 biochemical assays; read-out: Act. Level (JNK1 IC50 activity level)

T1 sequence (P45983 whole entry): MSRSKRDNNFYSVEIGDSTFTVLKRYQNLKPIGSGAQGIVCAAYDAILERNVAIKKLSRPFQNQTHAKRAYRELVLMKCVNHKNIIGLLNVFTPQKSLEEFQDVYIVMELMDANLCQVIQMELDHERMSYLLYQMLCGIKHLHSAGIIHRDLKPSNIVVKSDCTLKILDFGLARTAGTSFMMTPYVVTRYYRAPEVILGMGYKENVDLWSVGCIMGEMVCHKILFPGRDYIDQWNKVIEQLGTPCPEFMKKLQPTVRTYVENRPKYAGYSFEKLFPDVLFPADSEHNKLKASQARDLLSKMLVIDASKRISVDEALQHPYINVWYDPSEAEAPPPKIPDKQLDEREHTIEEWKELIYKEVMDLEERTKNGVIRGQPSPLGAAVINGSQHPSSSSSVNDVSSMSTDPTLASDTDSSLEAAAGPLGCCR

Structure (SMILES) | IC50 [nM]
CC(C)Nc1nc(NC2CCOCC2)ncc1C(N)=O [Example 222, 4-(isopropylamino)-2-(tetrahydro-2H-pyran-4-ylamino)pyrimidine-5-carboxamide] | 200 to 800
CC(C)Nc1nc(NC(C)(C)C)ncc1C(N)=O [Example 227, 2-(tert-butylamino)-4-(isopropylamino)pyrimidine-5-carboxamide] | 200 to 800
CC(C)(C)Nc1ncc(C(N)=O)c(N[C@@H]2CCCOC2)n1 [Example 236, (R)-2-(tert-butylamino)-4-(tetrahydro-2H-pyran-3-ylamino)pyrimidine-5-carboxamide] | 200 to 800
CC(C)(C)Nc1ncc(C(N)=O)c(NC(C)(C)C)n1 [Example 238, 2,4-bis(tert-butylamino)pyrimidine-5-carboxamide] | 200 to 800
NC(=O)c1cnc(NC2CCC(F)(F)CC2)nc1N[C@@H]1CCC[C@@H]1CO [Example 241, 2-(4,4-difluorocyclohexylamino)-4-((1R,2S)-2-(hydroxymethyl)cyclopentylamino)pyrimidine-5-carboxamide] | < 200
CO[C@H]1CC[C@H](Nc2ncc(C(N)=O)c(NC3CCC3C)n2)CC1 (some centres unmarked) [Example 242, 2-((1r,4r)-4-methoxycyclohexylamino)-4-(2-methylcyclobutylamino)pyrimidine-5-carboxamide] | < 200
CO[C@H]1CC[C@H](Nc2ncc(C(N)=O)c(NC3CCC3C)n2)CC1 (some centres unmarked) [Example 243, 2-((1r,4r)-4-methoxycyclohexylamino)-4-(2-methylcyclobutylamino)pyrimidine-5-carboxamide] | < 200
CC1CCC1Nc1nc(N[C@H]2CC[C@H](O)CC2)ncc1C(N)=O (some centres unmarked) [Example 244, 2-((1r,4r)-4-hydroxycyclohexylamino)-4-(2-methylcyclobutylamino)pyrimidine-5-carboxamide] | < 200
CC1CCC1Nc1nc(N[C@H]2CC[C@H](O)CC2)ncc1C(N)=O (some centres unmarked) [Example 245, 2-((1r,4r)-4-hydroxycyclohexylamino)-4-(2-methylcyclobutylamino)pyrimidine-5-carboxamide] | < 200
CC1CCC1Nc1nc(N[C@H]2CC[C@H](O)CC2)ncc1C(N)=O (some centres unmarked) [Example 246, 2-((1r,4r)-4-hydroxycyclohexylamino)-4-(2-methylcyclobutylamino)pyrimidine-5-carboxamide] | < 200
CC1CCC1Nc1nc(N[C@H]2CC[C@H](O)CC2)ncc1C(N)=O (some centres unmarked) [Example 247, 2-((1r,4r)-4-hydroxycyclohexylamino)-4-(2-methylcyclobutylamino)pyrimidine-5-carboxamide] | < 200
NC(=O)c1cnc(NC2CCCC(O)CC2)nc1NC1CCC1 (centres unmarked) [Example 248, 4-(cyclobutylamino)-2-(4-hydroxycycloheptylamino)pyrimidine-5-carboxamide] | < 200
NC(=O)c1cnc(NC2CCCC(O)CC2)nc1NC1CCC1 (centres unmarked) [Example 249, 4-(cyclobutylamino)-2-(4-hydroxycycloheptylamino)pyrimidine-5-carboxamide] | < 200
CC(C)(C)Nc1nc(NC2CCCC(O)CC2)ncc1C(N)=O (centres unmarked) [Example 250, 4-(tert-butylamino)-2-(4-hydroxycycloheptylamino)pyrimidine-5-carboxamide] | < 200
CC(C)(C)Nc1nc(NC2CCCC(O)CC2)ncc1C(N)=O (centres unmarked) [Example 251, 4-(tert-butylamino)-2-(4-hydroxycycloheptylamino)pyrimidine-5-carboxamide] | < 200
NC(=O)c1cnc(NC2CCOCC2)nc1N[C@@H]1CCC[C@@H]1CO [Example 252, 4-((1R,2S)-2-(hydroxymethyl)cyclopentylamino)-2-(tetrahydro-2H-pyran-4-ylamino)pyrimidine-5-carboxamide] | < 200
CC(C)Nc1nc(NC23CCC(F)(CC2)CC3)ncc1C(N)=O [Example 253, 2-(4-fluorobicyclo[2.2.2]octan-1-ylamino)-4-(isopropylamino)pyrimidine-5-carboxamide] | < 200
CO[C@H]1CC[C@H](Nc2ncc(C(N)=O)c(NC3CCC3C)n2)CC1 (some centres unmarked) [Example 254, 2-((1r,4r)-4-methoxycyclohexylamino)-4-(2-methylcyclobutylamino)pyrimidine-5-carboxamide] | < 200
CO[C@H]1CC[C@H](Nc2ncc(C(N)=O)c(NC3CCC3C)n2)CC1 (some centres unmarked) [Example 255, 2-((1r,4r)-4-methoxycyclohexylamino)-4-(2-methylcyclobutylamino)pyrimidine-5-carboxamide] | < 200
CC1CCC1Nc1nc(N[C@H]2CC[C@H](OCC(F)(F)F)CC2)ncc1C(N)=O (some centres unmarked) [Example 256, 4-(2-methylcyclobutylamino)-2-((1r,4r)-4-(2,2,2-trifluoroethoxy)cyclohexylamino)pyrimidine-5-carboxamide] | < 200
CC1CCC1Nc1nc(N[C@H]2CC[C@H](OCC(F)(F)F)CC2)ncc1C(N)=O (some centres unmarked) [Example 257, 4-(2-methylcyclobutylamino)-2-((1r,4r)-4-(2,2,2-trifluoroethoxy)cyclohexylamino)pyrimidine-5-carboxamide] | < 200
CC1CCC1Nc1nc(N[C@H]2CC[C@H](OCC(F)(F)F)CC2)ncc1C(N)=O (some centres unmarked) [Example 258, 4-(2-methylcyclobutylamino)-2-((1r,4r)-4-(2,2,2-trifluoroethoxy)cyclohexylamino)pyrimidine-5-carboxamide] | < 200
CCO[C@H]1CC[C@H](Nc2ncc(C(N)=O)c(N[C@@H]3CCC[C@H]3CO)n2)CC1 [Example 259, 2-((1r,4R)-4-ethoxycyclohexylamino)-4-((1R,2R)-2-(hydroxymethyl)cyclopentylamino)pyrimidine-5-carboxamide] | < 200
CO[C@H]1CC[C@H](Nc2ncc(C(N)=O)c(N[C@@H]3CCC[C@H]3CO)n2)CC1 [Example 260, 4-((1R,2R)-2-(hydroxymethyl)cyclopentylamino)-2-((1r,4R)-4-methoxycyclohexylamino)pyrimidine-5-carboxamide] | < 200
C[C@@H](Nc1nc(N[C@H]2CC[C@H](O)CC2)ncc1C(N)=O)C1CC1 [Example 261, 4-((R)-1-cyclopropylethylamino)-2-((1r,4R)-4-hydroxycyclohexylamino)pyrimidine-5-carboxamide] | < 200
CCC(C)(CC)Nc1nc(N[C@H]2CC[C@H](O)CC2)ncc1C(N)=O [Example 262, 2-((1r,4r)-4-hydroxycyclohexylamino)-4-(3-methylpentan-3-ylamino)pyrimidine-5-carboxamide] | < 200

Next, values leading:

IC50 [nM] | Structure (SMILES)
< 200 | CC(C)CCNc1nc(N[C@H]2CC[C@H](O)CC2)ncc1C(N)=O [Example 220, 2-((1r,4r)-4-hydroxycyclohexylamino)-4-(isopentylamino)pyrimidine-5-carboxamide]
< 200 | NC(=O)c1cnc(N[C@H]2CC[C@H](O)CC2)nc1NCC1CCC1 [Example 221, 4-(cyclobutylmethylamino)-2-((1r,4r)-4-hydroxycyclohexylamino)pyrimidine-5-carboxamide]
< 200 | CCO[C@H]1CC[C@H](Nc2ncc(C(N)=O)c(NC(C)C)n2)CC1 [Example 224, 2-((1r,4r)-4-ethoxycyclohexylamino)-4-(isopropylamino)pyrimidine-5-carboxamide]
< 200 | CCC(C)(C)Nc1nc(N[C@H]2CC[C@H](O)CC2)ncc1C(N)=O [Example 225, 2-((1r,4r)-4-hydroxycyclohexylamino)-4-(tert-pentylamino)pyrimidine-5-carboxamide]
< 200 | NC(=O)c1cnc(N[C@H]2CC[C@H](O)CC2)nc1NCC1CC1 [Example 226, 4-(cyclopropylmethylamino)-2-((1r,4r)-4-hydroxycyclohexylamino)pyrimidine-5-carboxamide]
< 200 | CC(C)(C)CNc1nc(N[C@H]2CC[C@H](O)CC2)ncc1C(N)=O [Example 228, 2-((1r,4r)-4-hydroxycyclohexylamino)-4-(neopentylamino)pyrimidine-5-carboxamide]
< 200 | NC(=O)c1cnc(NC23CCC(O)(CC2)CC3)nc1N[C@@H]1CCC[C@H](O)C1 [Example 229, 2-(4-hydroxybicyclo[2.2.2]octan-1-ylamino)-4-((1R,3S)-3-hydroxycyclohexylamino)pyrimidine-5-carboxamide]
< 200 | COC12CCC(Nc3ncc(C(N)=O)c(N[C@@H]4CCC[C@H](O)C4)n3)(CC1)CC2 [Example 231, 4-((1R,3S)-3-hydroxycyclohexylamino)-2-(4-methoxybicyclo[2.2.2]octan-1-ylamino)pyrimidine-5-carboxamide]
< 200 | NC(=O)c1cnc(NC23CCC(O)(CC2)CC3)nc1NC1CCC1 [Example 232, 4-(cyclobutylamino)-2-(4-hydroxybicyclo[2.2.2]octan-1-ylamino)pyrimidine-5-carboxamide]
< 200 | CC(C)Nc1nc(N[C@H]2CCC[C@@H](O)CC2)ncc1C(N)=O [Example 233, 2-((1S,4R)-4-hydroxycycloheptylamino)-4-(isopropylamino)pyrimidine-5-carboxamide]
< 200 | CC(C)Nc1nc(N[C@@H]2CCC[C@H](O)CC2)ncc1C(N)=O [Example 234, 2-((1R,4S)-4-hydroxycycloheptylamino)-4-(isopropylamino)pyrimidine-5-carboxamide]
< 200 | NC(=O)c1cnc(N[C@H]2CC[C@H](O)CC2)nc1NC1COC1 [Example 235, 2-((1r,4r)-4-hydroxycyclohexylamino)-4-(oxetan-3-ylamino)pyrimidine-5-carboxamide]
< 200 | CC(C)(C)Nc1nc(NC23CCC(O)(CC2)CC3)ncc1C(N)=O [Example 237, 4-(tert-butylamino)-2-(4-hydroxybicyclo[2.2.2]octan-1-ylamino)pyrimidine-5-carboxamide]
< 200 | CC1(Nc2nc(N[C@H]3CC[C@H](O)CC3)ncc2C(N)=O)CCC1 [Example 239, 2-((1r,4r)-4-hydroxycyclohexylamino)-4-(1-methylcyclobutylamino)pyrimidine-5-carboxamide]
< 200 | CC(C)Nc1ncc(C(N)=O)c(N[C@@H]2CC[C@@H](C)[C@H](O)C2)n1 [Example 240, 4-((1R,3R,4R)-3-hydroxy-4-methylcyclohexylamino)-2-(isopropylamino)pyrimidine-5-carboxamide]
